Literature values as cited in patent US6316027A, “Fast-dissolving dosage forms for dopamine agonists” (priority 1995, dated 2001).

Assays:
[1] = acidic environment
[2] = not given; remark: listed apart in the source
[3] = not given; remark: listed apart in the source
[4] = sub-lingual tablets, prolonged use

presystemic metabolism (first pass effect) (oral tablets, small intestine and/or liver) | blood urea nitrogen (oral, long-term studies, stopped after 7-10 days) | stomatitis [4] | involuntary movements on prolonged use ([2]; prolonged use) | fraction entering the brain ([3]; in vivo) | absorption from the small intestine ([3]; oral) | SMILES | nasal side effects (intranasal) | buccal mucosal ulceration, share of patients [4] | dopamine agonist side effects (subcutaneous) | chemical stability [1] | incidence of malignant melanoma ([2]; patients undergoing treatment with levodopa)
extensive presystemic metabolism | unexplained rises in blood urea nitrogen | severe stomatitis |  |  |  | CN1CCc2cccc3c2[C@H]1Cc1ccc(O)c(O)c1-3 [apomorphine, 5,6,6a,7-tetrahydro-6-methyl-4H-dibenzo quinoline-10; 11-diol] | transient nasal blockage, burning sensation and swollen nose and lips | half the patients | nausea and vomiting | optimal chemical stability in an acidic environment | 
 |  |  | involuntary choreiform movements | less than 1% | well absorbed from the small intestine | N[C@@H](Cc1ccc(O)c(O)c1)C(=O)O [levodopa] |  |  |  |  | increased incidence of malignant melanoma
